Results on 1 substance are retold here after US20260242606A1, “PROCESS OF PREPARATION OF RESIDUE FREE SOLVENT BLUE 67 DYE” (RATHI DYE CHEM (P) LTD, priority 2023, published 2026).

The data set can be described thus: Estimation of residue content in Solvent Blue 67 dye by filtration of the dye solution in organic solvent. In kind it is physicochemical. Here is the method:
For the preparation of Solvent Blue 67, chlorosulfonation is carried out in a vessel by reacting chlorosulfonic acid with 300 g of crude copper phthalocyanine blue (CPC) in presence of acid chloride followed by the process of drowning, filtration, homogenization, condensation, clarification, filtration, spin flash drying, airclassifying and sieving to retrieve the final product. The final product obtained is 560 g to 600 g of Solvent Blue 67 with purity 100%+5% coloristic value. Further, the estimation of residue content is determined by filtration process of prepared Solvent Blue 67 dye using organic solvent and the weight of residue is calculated.
An adequate quantity of Solvent Blue 67 of about 20 g to 60 g is dissolved in 50 ml to 150 ml of alkyl ester (or alkyl ketonic organic solvent) based on end process in a glass beaker. […]
The resultant dye solution is filtered through a filtration assembly. […] The residue left in the beaker is quantitatively transferred to the filter using 20 ml to 30 ml of alkyl ester (or alkyl ketonic organic solvent) and the filtrate is further washed with 15 to 25 ml of the same solvent to make it colour free. […] The weight of residue is calculated as weights of before and after filtration and expressed in PPM. […]

With Solvent Blue 67, the residue content result (Example 1, after clarification 225 (circulated in filter of 10 to 100 mesh up to 24 hrs), cake dried) was “below 40 PPM”. Under “dye dissolved in alkyl ester or alkyl ketonic organic solvent, filtered through 20 to 50 micron stainless-steel mesh”, the “presence of residue (FIGS. 2a and 2b)” value is given as “does not show presence of any amount of residue”.
